The values below come from PubChem BioAssay AID434972 (The Scripps Research Institute Molecular Screening Center, 2010).

The target of this assay is Wee1-like protein kinase (Homo sapiens) (UniProt P30291). Description: Wee1 degradation inhibition by kinase inhibitors, SAR follow-up, cell-based, HeLa, WEE1K328M-luciferase, luminescence, powder samples (AID 434972). The note with it: HeLa WEE1K328M-luciferase stability, at 0.25 µM, stronger effect = higher value.

Calls of active or inactive are those of the source.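 How the source made its calls: active means inhibition of WEE1 degradation of at least 19%, seen as raised luminescence; inactive means the rest.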

Wee1-like protein kinase (Homo sapiens), sequence (P30291 whole entry K328M): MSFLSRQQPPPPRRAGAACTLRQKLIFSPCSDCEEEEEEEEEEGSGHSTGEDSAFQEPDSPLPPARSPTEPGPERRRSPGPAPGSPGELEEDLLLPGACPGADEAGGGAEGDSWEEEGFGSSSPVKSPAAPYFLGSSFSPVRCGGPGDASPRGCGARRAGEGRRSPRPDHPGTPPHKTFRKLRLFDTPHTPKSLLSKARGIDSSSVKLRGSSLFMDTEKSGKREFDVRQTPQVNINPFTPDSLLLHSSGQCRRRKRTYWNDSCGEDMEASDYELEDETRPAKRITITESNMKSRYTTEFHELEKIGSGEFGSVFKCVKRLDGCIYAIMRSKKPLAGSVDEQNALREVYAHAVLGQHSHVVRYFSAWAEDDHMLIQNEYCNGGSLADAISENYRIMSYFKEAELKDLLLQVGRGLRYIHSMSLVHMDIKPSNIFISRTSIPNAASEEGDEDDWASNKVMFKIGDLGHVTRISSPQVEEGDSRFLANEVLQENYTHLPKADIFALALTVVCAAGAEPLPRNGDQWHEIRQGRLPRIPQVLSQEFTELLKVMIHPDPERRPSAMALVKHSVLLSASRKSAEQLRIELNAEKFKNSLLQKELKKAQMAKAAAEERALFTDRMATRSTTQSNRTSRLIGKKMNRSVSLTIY

Consider `CC(C)n1cnc2c(NCc3nc4ccccc4[nH]3)nc(Nc3cnccn3)nc21`, for which the inhibition of WEE1 degradation is 5.3% (inactive).
Turning to `c1ccc2[nH]c(CNc3nc(N4CCNCC4)nc4c3ncn4-c3ccsc3)nc2c1`, the inhibition of WEE1 degradation was 14.5% (inactive).
With `Fc1ccc2nc(CNc3nc(N4CCOCC4)nc4c3ncn4-c3ccsc3)[nH]c2c1`, the inhibition of WEE1 degradation is 81.4%.
With `CC(C)n1cnc2c(NCc3nc4ccccc4[nH]3)nc(Nc3ccncn3)nc21`, the inhibition of WEE1 degradation is 4% (inactive).
For the compound `c1ccc(-n2cnc3c(NCc4nc5ccccc5[nH]4)nc(N4CCOCC4)nc32)cc1`, the inhibition of WEE1 degradation was 4% (inactive).
Consider `O=C(NC1CC1)c1ccc(-c2nc(NCc3nc4ccccc4[nH]3)c3ncn(-c4ccsc4)c3n2)cc1`, for which the inhibition of WEE1 degradation was 3.6% (inactive).
As for `OCCN1CCN(c2nc(NCc3nc4ccccc4[nH]3)c3ncn(-c4ccsc4)c3n2)CC1`, the inhibition of WEE1 degradation is 10% (inactive).
To `FC(F)(F)c1cc(Br)c2nc(CNc3nc(N4CCOCC4)nc4c3ncn4-c3ccsc3)[nH]c2c1` belongs 13.4% (inactive); to `NCCN1CCN(c2nc(NCc3nc4ccccc4[nH]3)c3ncn(-c4ccsc4)c3n2)CC1`, 8.6% (inactive); to `c1ccc2[nH]c(CNc3nc(N4CCOCC4)nc4c3ncn4-c3ccsc3)nc2c1`, 56.8%.
In the case of `Clc1ccc2nc(CNc3nc(N4CCOCC4)nc4c3ncn4-c3ccsc3)[nH]c2c1`, the inhibition of WEE1 degradation was 101%.
On to `O=[N+]([O-])c1ccc2nc(CNc3nc(N4CCOCC4)nc4c3ncn4-c3ccsc3)[nH]c2c1`, for which the inhibition of WEE1 degradation was 18.7% (inactive).
In the case of `FC(F)(F)c1ccc2nc(CNc3nc(N4CCOCC4)nc4c3ncn4-c3ccsc3)[nH]c2c1`, the inhibition of WEE1 degradation is 46.3%.
Regarding `c1ccc2[nH]c(CNc3nc(NCCN4CCOCC4)nc4c3ncn4-c3ccsc3)nc2c1`, the inhibition of WEE1 degradation was 8.1% (inactive).
On to `C=CCN(CC=C)c1nc(NCc2nc3ccccc3[nH]2)c2ncn(-c3ccsc3)c2n1`, for which the inhibition of WEE1 degradation is 8.2% (inactive).
In the case of `N#Cc1ccc2nc(CNc3nc(N4CCOCC4)nc4c3ncn4-c3ccsc3)[nH]c2c1`, the inhibition of WEE1 degradation is 85.9%.
With `c1ccc2[nH]c(CNc3nc(Nc4cnccn4)nc4c3ncn4-c3ccsc3)nc2c1` the figure was 2.9% (inactive).
For `CCOC(=O)c1cccc2[nH]c(CNc3nc(N4CCOCC4)nc4c3ncn4C(C)C)nc12`, the inhibition of WEE1 degradation was 17% (inactive).
As for `C[C@@H](Nc1nc(NCc2nc3ccccc3[nH]2)c2ncn(-c3ccsc3)c2n1)c1ccccc1`, the inhibition of WEE1 degradation was 9.2% (inactive).
As for `c1ccc2cc3[nH]c(CNc4nc(N5CCOCC5)nc5c4ncn5-c4ccsc4)nc3cc2c1`, the inhibition of WEE1 degradation is 48.3%.
In the case of `c1ccc2c(c1)CCN2c1nc(NCc2nc3ccccc3[nH]2)c2ncn(-c3ccsc3)c2n1`, the inhibition of WEE1 degradation is 7.9% (inactive).
Regarding `c1ccc(N2CCN(c3nc(NCc4nc5ccccc5[nH]4)c4ncn(-c5ccsc5)c4n3)CC2)nc1`, the inhibition of WEE1 degradation was 4% (inactive).
For `Cc1ccnc(NC(=O)CCCOc2cc(=O)n(C)c3ccccc23)c1`, the inhibition of WEE1 degradation is 6.4% (inactive).
As to `CN1CCN(c2nc(NCc3nc4ccccc4[nH]3)c3ncn(-c4ccsc4)c3n2)CC1`, the inhibition of WEE1 degradation was 14.1% (inactive).
For `c1ccc2[nH]c(CNc3nc(N4CCCCC4)nc4c3ncn4-c3ccsc3)nc2c1`, the inhibition of WEE1 degradation is 10.5% (inactive).
For `CC(C)n1cnc2c(NCc3nc4ccccc4[nH]3)nc(N3CCOCC3)nc21`, the inhibition of WEE1 degradation is 4.1% (inactive).
For the compound `CC(C)n1cnc2c(NCc3nc4c([N+](=O)[O-])cccc4[nH]3)nc(N3CCOCC3)nc21`, the inhibition of WEE1 degradation was 111%.
For the compound `O=[N+]([O-])c1cccc2[nH]c(CNc3nc(N4CCOCC4)nc4c3ncn4-c3ccsc3)nc12`, the inhibition of WEE1 degradation is 100%.
As to `COc1ccc2nc(CNc3nc(N4CCOCC4)nc4c3ncn4-c3ccsc3)[nH]c2c1`, the inhibition of WEE1 degradation is 79.5%.
`CCOC(=O)c1cccc2[nH]c(CNc3nc(N4CCOCC4)nc4c3ncn4-c3ccsc3)nc12`: the inhibition of WEE1 degradation was 97.3%.
Consider `c1ccc2[nH]c(CNc3nc(N4CCSCC4)nc4c3ncn4-c3ccsc3)nc2c1`, for which the inhibition of WEE1 degradation was 11.4% (inactive).
On to `CC(C)n1cnc2c(NCc3nc4ccccc4[nH]3)nc(Nc3cccnc3)nc21`, for which the inhibition of WEE1 degradation is 3.4% (inactive).
With `c1cnc2ccc3[nH]c(CNc4nc(N5CCOCC5)nc5c4ncn5-c4ccsc4)nc3c2c1` the figure was 22%; with `c1ccc2[nH]c(CNc3nc(N4CCCC4)nc4c3ncn4-c3ccsc3)nc2c1`, 9.9% (inactive).
To `FC(F)(F)c1cccc2[nH]c(CNc3nc(N4CCOCC4)nc4c3ncn4-c3ccsc3)nc12` belongs 10.8% (inactive); to `Nc1ccc2nc(CNc3nc(N4CCOCC4)nc4c3ncn4-c3ccsc3)[nH]c2c1`, 8.3% (inactive); to `Nc1cccc2[nH]c(CNc3nc(N4CCOCC4)nc4c3ncn4-c3ccsc3)nc12`, 15.6% (inactive).
